Source: patent publication US8980933B2, “Combretastatin analogs for use in the treatment of cancer” (Universitat Bayreuth, priority 2010, dated 2015)
“Also recorded” adds a separate entry of the source.

Assays:
tubulin = assay: Tubulin Polymerization assay (fluorescence kit); assay type: biochemical
Experimental: Analysis of tubulin polymerization was performed using the Tubulin Polymerization Assay Kit (Cytoskeleton, USA) according to manufacturer's instructions. The assay is fluorescence-based and tubulin polymerization was followed by measuring RFU (relative fluorescence units) on the SpectraFluor Plus (Tecan, Switzerland) using the following filters: excitation 360 nm, emission 465 nm.

[1] = test system: vascular system of a fertilized chicken embryo; assay: CAM assay; assay type: in vivo; settings: 10 nmol applied on the embryonal vessels; up to three days
Experimental: Compounds of the present invention were tested for anti-angiogenic and vasculature disrupting properties using the CAM assay. In this test the vascular system of a fertilized chicken embryo is used as a model (Wilting et al., Anat. Embryol. 1991, 183, 259-271).
Fertilized chicken eggs received from a nearby farm directly after laying have been incubated at a temperature of 36-38° C. and a relative humidity of 60%. During the growth the eggs have been held in an inclined position and turned from time to time in order to avoid an adherence to the shell. After four days each embryo was transferred into a cavity created by fixing a thin plastic foil on top of a cup and covered. This was done by opening the shell at the flat end where the air sac resides and letting the content slip out. There the growth continued for another 2-4 days until the first blood vessels became visible. Then 10 nmol of the substance to be tested (in 10 μL PBS with 1% DMF) have been applied directly on the embryonal vessels. As a reference PBS was used. Finally incubation continued for up to another three days (Dugan et al., Anat. Rec. 1991, 229, 125-128; Fisher, Tested studies for laboratory teaching 1993, 5, 105-115).

[2] = Solubility in physiological saline solution; assay type: physicochemical; settings: saline or isotonic, read-out: concentration achieved in physiological saline solution
Experimental: (§1) For the biotests compound 5b was dissolved in physiological saline solution. […] Customarily, in vivo applications to animals require only concentrations up to 3 mM. In order to check the chemical stability of such solutions of 5b they were stored for one month and subsequently used in in vitro tests alongside freshly prepared solutions of the same concentrations of 5b.

[3] = Chemical stability of solutions stored for one month, retested in vitro; assay type: physicochemical; settings: solution stored for one month vs freshly prepared; tubulin polymerization and SRB assays
Experimental: as §1

[4] = test system: H12.1 germ cell tumor cell line; assay: SRB-cytotoxicity assay, H12.1; assay type: cell-based; settings: Homo sapiens, 96 h
Experimental: The cytotoxic activity of 5b was established by standard colorimetric tests (SRB- and MTT-assays) against various tumor cell lines of different entities. For the SRB cytotoxicity assay, dose-response curves of the testicular germ cell tumor cell lines exposed to drug concentrations of 0.001-10 μM were established using the sulforhodamine-B (SRB) microcuiture colorimetric assay (Papazisis et al. Optimization of the sulforhodamine B colorimetric assay. J. Immunol. Methods 1997, 208, 151-158) and performed as described in: Müller et al. Failure of activation of caspase-9 induces a higher threshold for apoptosis and cisplatin resistance in testicular cancer. Cancer Res. 2003, 63, 513-521. Briefly, cells were seeded into 96-well plates on day 0, at cell densities previously determined to ensure exponential cell growth during the period of the experiment. On day 1, cells were treated with the drugs dissolved in medium to give the appropriate concentrations for indicated times and the percentage of surviving cells relative to untreated controls was determined on day 5.

[5] = test system: 1411HP germ cell tumor xenografts; assay: Nude mouse xenograft model of resistant 1411HP; assay type: in vivo; settings: 60 mg/kg peroral; 24 h
HL-60 cells = assay: Mitochondrial membrane assay (JC-1), HL-60; assay type: cell-based, human; settings: 5 μM, red/green fluorescence ratio relative to untreated controls (100%), mean ± SD
Experimental: Values represent means of four independent experiments±standard deviation.
Changes in mitochondrial membrane potential were determined by the Mitochondrial Membrane Detection Kit (Stratagene, La Jolla, Calif., USA) according to the manufacturer's procedure. 72 h following treatment with 5 μM of the test compounds, cell samples were centrifuged at 400 g for 5 min. The pellets were resuspended in 500 μL diluted JC-1 solution, incubated at 37° C. for 15 min (HL-60) and then centrifuged again for 5 min at 400 g. After washing, the pellets were resuspended in 100 μL PBS and transferred into the wells of a black 96-well plate. The red (λex=585 nm, λem=590 nm) and green (λex=510 nm, λem=527 nm) fluorescence intensities were measured and their ratio was calculated.

Structure (SMILES)	inhibition of tubulin polymerization (tubulin)	effect on embryonal blood vessels [1]	solubility [2]	chemical stability in solution (activity retained) [3]	IC50 [4]	vascular disrupting effect after oral administration [5]	Intact mitochondria [%] in HL-60 cells after 72 h (HL-60 cells)
COc1ccc(-c2c(-c3cc(Cl)c(OC)c(OC)c3)ncn2C)cc1N [compound 5b, 1-methyl-5-(3-amino-4-methoxyphenyl)-4-(3-chloro-4,5-dimethoxyphenyl)-imidazole]	effectively inhibits the polymerization of tubulin	dramatic vessel shrinkage within 24 h after treatment and to a complete degradation of the vascular system within three days	≥ 10 mM	No loss of activity; also recorded: persistence of efficacy; also recorded: high, unattenuated activity and efficacy	0.03 to 0.05 µM	–	–
COc1ccc(-c2c(-c3cc(Br)c(OC)c(OC)c3)ncn2C)cc1N [compound 6b, 1-methyl-5-(3-amino-4-methoxyphenyl)-4-(3-bromo-4,5-dimethoxyphenyl)-imidazole]	–	leaving regular vasculature in chicken embryos (CAM assay) alone	–	–	–	occurred to same extent as seen after i.p. application	66 ± 10%
